Experiment in all cases: DTP human tumour cell line panel, 48 h
Assay [1] concerns HL-60(TB) leukemia.
The subject of assay [2] is SK-OV-3 ovarian.
The subject of assay [3] is OVCAR-8 ovarian.
The subject of assay [4] is CAKI-1 renal.
Assay [5] has as its system 786-0 renal.
In assay [6] the test system is RPMI-8226 leukemia.
Assay [7] has as its system UACC-62 melanoma.
For assay [8], the system named is HCT-116 colon.
Assay [9] concerns A498 renal.

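How tested: cells in 96-well plates exposed to compound for 48 hours at five concentrations. The concentration for 50% growth inhibition is given as GI50. TGI denotes the concentration required for complete inhibition of growth.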

As a reminder, the TGI is the concentration at which net growth stops. Read a high TGI as lower sensitivity of the cells. For the molecule `Nc1ncnc2sc(Nc3ccccc3)nc12`, the TGI in assay [1] is 64.7 µM; in [2], greater than 100 µM; in assay [3], greater than 100 µM; in assay [4], greater than 100 µM; in assay [5] it was greater than 100 µM; in assay [6] it was greater than 100 µM. Further, in [7], the TGI is greater than 100 µM.

Regarding `NC(=O)C(=O)Cc1nc2ccccc2s1`, the TGI in [1], in [2], in assay [3], in [8], in assay [9] and in assay [5] was greater than 100 µM throughout. The molecule also had a TGI in [6] greater than 100 µM.

As a reminder, the GI50 is the concentration at which growth is held to half of that of the control. In the case of `CC1(C)OC2OC(COC(=O)C(c3ccccc3)c3ccccc3)C3OC(C)(C)OC3C2O1` (stereo unspecified), the GI50 is 2.99 µM in assay [1], greater than 100 µM in [2], greater than 100 µM in assay [9] and greater than 100 µM in assay [4]. The TGI in [1] is 13.8 µM; in [2], greater than 100 µM; in assay [3] it was greater than 100 µM; in [9], greater than 100 µM; in assay [4] it was greater than 100 µM; in assay [5], greater than 100 µM. The TGI in [6] is 42.7 µM; in assay [7] it was greater than 100 µM.

`COc1ccc2nc(-c3ccc(O)cc3)ccc2c1`: the TGI in assay [1], in assay [2], in [3], in assay [8], in [5] and in [6] was greater than 100 µM throughout. For the same molecule, in assay [7], the TGI is greater than 100 µM.

As for `Cn1cc(NC(=O)c2cc(NC(=O)CCCCCCCC(=O)Nc3cc(C(=O)Nc4cc(C(=O)NCCC(=N)N)n(C)c4)n(C)c3)cn2C)cc1C(=O)NCCC(=N)N`, the TGI in [1] was 16.3 µM; in assay [2], greater than 100 µM; in assay [3] it was 42.9 µM; in assay [8], 42.3 µM; in assay [9], 56.7 µM; in assay [4], 47.5 µM. The figures for the TGI in [5] and in [7] were greater than 100 µM and 36.8 µM, respectively.

As for `Cc1csc(CCC(N)C(=O)O)n1` (stereo unspecified), the TGI in assay [2], in assay [3], in assay [8], in assay [4], in [5] and in [6] was greater than 100 µM throughout. The same molecule had a TGI in [7] greater than 100 µM.

As to `C1CCN2CC3CONC3C2C1` (stereo unspecified), the TGI in assay [1], in assay [3], in assay [8], in [9], in assay [4] and in [5] was greater than 100 µM in each case. The TGI in [6] and in assay [7] was greater than 100 µM each time.

For the molecule `CC1(C)CC(O)CC(C)(C)N1.CC1(C)CC(O)CC(C)(C)N1.CC1(C)CC(O)CC(C)(C)N1.CC1(C)CC(O)CC(C)(C)N1.Cl.[Ti]`, the GI50 in assay [2], in assay [3], in [8], in [9], in [4] and in assay [5] was greater than 100 µM in each case. In addition, the GI50 in assay [6] and in assay [7] was greater than 100 µM in each case. Besides, the TGI in assay [2], in assay [3], in assay [8], in assay [9], in assay [4] and in [5] was greater than 100 µM throughout. Besides, the TGI in [6] and in [7] was greater than 100 µM each time.

For the molecule `CC(C)(C)c1cc(C(OCCl)(C(F)(F)F)C(F)(F)F)c2c(c1)C(C(F)(F)F)(C(F)(F)F)OC21c2ccccc2C(=O)c2ccccc21`, the TGI in assay [3], in assay [8], in assay [4], in assay [5] and in assay [6] was greater than 100 µM in each case.

Consider `CCN(CC)CCCNc1c2ccc(Cl)cc2nc2ccc(OC)cc12`, for which the GI50 is 0.0552 µM in assay [3]; 0.0307 µM in assay [8]; 1.51 µM in [9]; 0.0449 µM in assay [5]; 0.042 µM in assay [6]; 1.84 µM in assay [7]. Also, the TGI in assay [3] is 3.44 µM; in assay [8] it was 1.64 µM; in assay [9] it was 2.86 µM; in [5], 2.15 µM; in [6] it was 2.83 µM; in assay [7], 3.55 µM.

For `C1=C(c2ccccc2)C(OC2Oc3ccccc3C=C2c2ccccc2)Oc2ccccc21` (stereo unspecified), the TGI in assay [1], in [2], in [3], in assay [8], in [9] and in assay [4] was greater than 100 µM throughout. Besides, the TGI in assay [5], in [6] and in assay [7] was greater than 100 µM in each case.

With `OC1CSCCSCCCSCCSC1`, the TGI in assay [1], in assay [2], in [3], in assay [8], in assay [9] and in assay [4] was greater than 100 µM throughout. In addition, the TGI in assay [5], in assay [6] and in assay [7] was greater than 100 µM in each case.

For `Nc1c(-c2nc3ccccc3s2)[n+]([O-])c2ccccc2[n+]1[O-]`, the TGI is 93.5 µM in [1]; 88.9 µM in [2]; greater than 100 µM in assay [3]; 63.9 µM in [8]; greater than 100 µM in assay [9]; 81.8 µM in assay [4]. Moreover, the TGI in [5] is greater than 100 µM; in assay [6] it was 89.5 µM; in [7], greater than 100 µM.

With `O=C(CCC(=O)C1Cc2ccccc2C1=O)Nc1cccc(C(F)(F)F)c1` (stereo unspecified), the TGI in assay [1], in assay [2], in assay [3], in assay [8], in assay [4] and in assay [5] was greater than 100 µM in each case. This molecule also displayed a TGI in assay [7] greater than 100 µM.

Consider `Nc1c(C(=O)Nc2ccccc2O)[n+]([O-])c2ccccc2[n+]1[O-]`, for which the concentration for total growth inhibition (TGI) in [1], in [2], in assay [3], in assay [8], in assay [9] and in assay [4] was greater than 100 µM throughout. Moreover, the TGI in [5] and in [6] was greater than 100 µM throughout.
